This note sets out measurements from patent publication US20080255206A1, “Rxr Agonists and Antagonists, Alone or in Combination with Ppar Ligands, in the Treatment of Metabolic and Cardiovascular Diseases” (priority 2005, published 2008).

In one experiment the target is T1, RARγ (Homo sapiens, UniProt P13631).
T1 construct: The DEF domains of RAR's and the full length RXR's, expressed in E.coli; made in house; host or cells: E. coli
T1 sequence (P13631 185-419 limits assumed): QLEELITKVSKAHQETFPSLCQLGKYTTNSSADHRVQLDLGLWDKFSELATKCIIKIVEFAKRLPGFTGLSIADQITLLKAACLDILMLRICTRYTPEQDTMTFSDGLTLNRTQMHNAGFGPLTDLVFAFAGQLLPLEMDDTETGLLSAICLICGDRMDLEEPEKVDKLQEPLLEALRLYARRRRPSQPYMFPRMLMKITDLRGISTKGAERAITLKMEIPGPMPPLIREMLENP
As to the kind of experiment: Retinoid binding assay, RARγ. Particulars: read-out: Binding Affinity IC50 RAR γ. The text has this: (§1) The DEF domains of RAR's and the full length RXR's, expressed in E.coli, are used to measure competitive retinoid binding. […] 9-cis retinoic acid (for RXR's), respectively. […] Separation of bound from free radioactivity is achieved by charcoal/dextran (RAR's) or by desalting columns (RXR's). […] Retinoid Activation Assays

Experiment [1] deals with T2, RXRα (Homo sapiens, UniProt P19793).
T2 sequence (P19793 1-462): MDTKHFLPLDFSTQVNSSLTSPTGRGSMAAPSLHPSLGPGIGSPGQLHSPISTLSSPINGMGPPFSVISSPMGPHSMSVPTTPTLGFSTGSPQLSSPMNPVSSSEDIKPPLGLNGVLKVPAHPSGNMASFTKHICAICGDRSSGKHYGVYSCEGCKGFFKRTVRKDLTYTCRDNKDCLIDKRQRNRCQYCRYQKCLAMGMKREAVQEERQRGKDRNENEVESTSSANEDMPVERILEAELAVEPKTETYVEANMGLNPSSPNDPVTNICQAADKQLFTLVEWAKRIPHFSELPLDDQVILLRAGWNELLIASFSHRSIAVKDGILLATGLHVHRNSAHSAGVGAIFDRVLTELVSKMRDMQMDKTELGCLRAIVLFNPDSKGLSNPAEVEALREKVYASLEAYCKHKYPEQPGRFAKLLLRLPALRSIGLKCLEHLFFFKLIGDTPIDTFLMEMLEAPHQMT
As to the kind of experiment: Retinoid activation assay, RXRα (Schneider SL-3 cells, luciferase reporter). The format is cell-based. The following applies: read-out: Activation EC50 RXR α. As for the experimental part: Full length RXR cDNA is used for transfection. As reporter system, the luciferase gene is used in a construct with three copies of a RXR response element from rat CRBP gene, (formerly RARE from betaRAR gene), fused to alcoholdehydrogenase gene promoter in the plasmid pGL2-basic. Schneider SL-3 cells from Drosophila are transiently transfected 3-4 h before the experiment by the Ca-phosphate-DNA coprecipitation method. […] At the end of the incubation, the cell supernatants are assayed for luciferase activity. Results are given as EC50 (nM), the concentration leading to half-maximal activation.

In the next experiment the target is T3, PPARγ/RXRα Heterodimer (Homo sapiens, UniProt P19793).
T3 construct: co-transfected with plasmids expressing the full length RXR heteropartner receptor; expressed in transfected cells
T3 sequence (P19793 1-462): T2 sequence (P19793 1-462)
T3 sequence (P37231 1-505 partner): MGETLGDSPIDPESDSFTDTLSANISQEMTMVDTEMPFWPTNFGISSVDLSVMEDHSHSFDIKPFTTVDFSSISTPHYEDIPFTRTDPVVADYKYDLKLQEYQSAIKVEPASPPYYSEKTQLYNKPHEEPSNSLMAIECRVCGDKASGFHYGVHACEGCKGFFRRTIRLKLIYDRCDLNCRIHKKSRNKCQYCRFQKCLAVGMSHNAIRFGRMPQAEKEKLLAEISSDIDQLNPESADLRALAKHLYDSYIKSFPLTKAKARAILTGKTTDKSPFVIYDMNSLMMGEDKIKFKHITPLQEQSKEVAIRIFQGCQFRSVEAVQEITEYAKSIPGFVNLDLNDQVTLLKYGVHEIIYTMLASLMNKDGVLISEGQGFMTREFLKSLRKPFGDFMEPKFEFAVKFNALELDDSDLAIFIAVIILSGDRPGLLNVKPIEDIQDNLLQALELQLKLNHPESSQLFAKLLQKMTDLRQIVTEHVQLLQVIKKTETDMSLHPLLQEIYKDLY
The experiment is described as follows: PPARγ/RXRα heterodimer activation (transactivation) assay. The format is cell-based. The text has this: Nuclear hormone receptor (NHR) ligand dependent transcriptional transactivation assay.
Heterodimer reporter assays are potentially more important selection criteria for synthetic agonistic NHR ligands as they embody a more natural situation. Basically plasmids expressing the recombinant full length NHR are co-transfected with plasmids expressing the full length RXR heteropartner receptor and a reporter plasmid containing several copies of the natural responsive elements for the respective NHR driving the luciferase reporter gene.

The target in experiment [2] is T2, RXRα. The experiment is described as follows: Retinoid binding assay, RXRα. On the set-up: made in house; host or cells: E. coli. Particulars: [3H] 9-cis retinoic acid 20 nM; read-out: Binding Affinity IC50 RXR α.
Text: as §1

The next experiment has as its target T4, RXRγ (Homo sapiens, UniProt P48443).
T4 sequence (P48443 1-463): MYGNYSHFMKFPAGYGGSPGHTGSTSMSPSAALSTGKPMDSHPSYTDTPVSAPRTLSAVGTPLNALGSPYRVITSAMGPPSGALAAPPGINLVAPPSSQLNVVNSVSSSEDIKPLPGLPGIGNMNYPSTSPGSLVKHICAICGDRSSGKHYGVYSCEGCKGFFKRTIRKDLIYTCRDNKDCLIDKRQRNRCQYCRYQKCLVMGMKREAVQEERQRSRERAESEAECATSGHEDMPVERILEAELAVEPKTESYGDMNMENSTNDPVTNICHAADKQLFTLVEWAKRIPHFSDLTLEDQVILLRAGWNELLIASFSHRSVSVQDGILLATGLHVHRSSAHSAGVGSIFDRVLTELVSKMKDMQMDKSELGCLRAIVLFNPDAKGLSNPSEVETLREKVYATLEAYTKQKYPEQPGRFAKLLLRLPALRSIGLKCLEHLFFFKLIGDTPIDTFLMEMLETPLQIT
As to the kind of experiment: Retinoid binding assay, RXRγ. The following applies: [3H] 9-cis retinoic acid 20 nM; read-out: Binding Affinity IC50 RXR γ. On the set-up: made in house; host or cells: E. coli.
Text: as §1

The next experiment addresses T5, RARβ (Homo sapiens, UniProt P10826).
T5 sequence (P10826 183-417 limits assumed): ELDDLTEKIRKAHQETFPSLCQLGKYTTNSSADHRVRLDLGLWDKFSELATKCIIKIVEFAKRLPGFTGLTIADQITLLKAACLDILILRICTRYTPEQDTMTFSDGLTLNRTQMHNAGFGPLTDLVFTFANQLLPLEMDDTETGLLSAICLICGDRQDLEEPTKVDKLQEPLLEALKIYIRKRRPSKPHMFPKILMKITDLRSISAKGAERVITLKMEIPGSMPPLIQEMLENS
As to the kind of experiment: Retinoid binding assay, RARβ. On the set-up: The DEF domains of RAR's and the full length RXR's, expressed in E.coli; made in house; host or cells: E. coli. Particulars: read-out: Binding Affinity IC50 RAR β.
Text: as §1

Molecules are shown by their SMILES.

Usually IC50 stands for the midpoint of a concentration-inhibition curve. One may read the EC50 as the concentration at which the effect is half-maximal.

Take `CCOc1c(\C(C)=C/C=C/C(C)=C/C(=O)O)cc(C(C)(C)C)cc1C(C)(C)C` [Compound 21, (2E,4E,6Z)-7-[3,5-Bis(1,1-dimethylethyl)-2-ethoxyphenyl]-3-methyl-2,4,6-octatrienoic acid/ethyl ester]: the IC50 at RARγ is more than 10 µM; on RXRα [2], 0.024 µM; at RXRγ, 0.057 µM; on RARβ, more than 10 µM. Also, the half-maximal effective concentration (EC50) on RXRα [1] was not below 10 µM; at PPARγ/RXRα Heterodimer, 0.00125 µM.
Take `CC1=C(/C=C/c2sccc2/C=C/C(C)=C/C(=O)O)C(C)(C)CCC1` [Compound 5, (2E,4E)-3-Methyl-5-[2-[(E)-2-(2,6,6-trimethyl-1-cyclohexen-1-yl)ethenyl]-3-thienyl]-2,4-pentadienoic acid]: the IC50 on RARγ amounted to 5.3 µM; on RXRα [2], 0.15 µM; at RXRγ, 0.16 µM; on RARβ, 1 µM. In addition, the EC50 worked out at 0.0008 µM at RXRα [1] and 0.0015 µM at PPARγ/RXRα Heterodimer.
For the compound `CCCCOc1c([C@@H]2C[C@@H]2/C=C/C(C)=C/C(=O)O)cc(C(C)(C)C)cc1C(C)(C)C` (racemic) [Compound 16, (2E,4E)-(1RS,2RS)-5-[2-(3,5-Di-tert-butyl-2-butoxy-phenyl)-cyclopropyl]-3-methyl-penta-2,4-dienoic acid], the 50% inhibitory concentration (IC50) at RARγ is more than 10 µM; at RXRα [2] it was 0.065 µM; at RXRγ, 0.082 µM; on RARβ it was more than 10 µM. Moreover, the EC50 on RXRα [1] was not below 10 µM; on PPARγ/RXRα Heterodimer it was more than 10 µM.
